The source of these data is ChEMBL document CHEMBL1150016, “Quinuclidine based NK-1 antagonists 2: determination of the absolute stereochemical requirements” (Bioorg Med Chem Lett, 1993).

SMILES strings stand for the structures.

For the test, the target named is Substance-P receptor (Homo sapiens, UniProt P25103). Nature of the test: Tested for binding affinity by measuring displacement of [125I]SP from human NK-1 receptor in CHO Cells.
Chain of Substance-P receptor (P25103 whole entry): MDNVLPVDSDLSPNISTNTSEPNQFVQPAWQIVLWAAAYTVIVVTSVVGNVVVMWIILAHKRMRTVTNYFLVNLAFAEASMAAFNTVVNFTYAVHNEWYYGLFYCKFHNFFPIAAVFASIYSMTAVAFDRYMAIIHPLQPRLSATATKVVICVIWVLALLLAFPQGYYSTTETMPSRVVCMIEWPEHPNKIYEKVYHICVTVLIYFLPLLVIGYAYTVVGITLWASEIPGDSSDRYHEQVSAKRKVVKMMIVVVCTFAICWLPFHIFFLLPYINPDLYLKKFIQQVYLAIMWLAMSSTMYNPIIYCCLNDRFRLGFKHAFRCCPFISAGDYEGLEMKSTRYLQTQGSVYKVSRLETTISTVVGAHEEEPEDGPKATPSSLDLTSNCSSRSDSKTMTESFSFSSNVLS

On to `FC(F)(F)c1cc(CO[C@@H]2C3CCN(CC3)[C@@H]2C(c2ccccc2)c2ccccc2)cc(C(F)(F)F)c1`, for which the IC50 came to 570 nM.
For the compound `FC(F)(F)c1cc(CO[C@H]2C3CCN(CC3)[C@@H]2C(c2ccccc2)c2ccccc2)cc(C(F)(F)F)c1`, the concentration for half-maximal inhibition (IC50) is 0.7 nM.
`FC(F)(F)c1cc(CO[C@@H]2C3CCN(CC3)[C@H]2C(c2ccccc2)c2ccccc2)cc(C(F)(F)F)c1` had a half-inhibitory concentration (IC50) of 270 nM.
`FC(F)(F)c1cc(CO[C@H]2C3CCN(CC3)[C@H]2C(c2ccccc2)c2ccccc2)cc(C(F)(F)F)c1` [L-709210] showed an IC50 of 1.3 nM.
